In patent US20020119967A1, “Pharmaceutical composition for preventing or treating a disease associated with an excess of IL-12-production” (priority 2000, published 2002):
Read-outs that look alike come from different tables or passages of the source.

Legend:
immature DC [1] = test: CD40-induced IL-12 production by immature DC stimulated with J558-CD40L cells; type: cell-based, human; conditions: 10 μM inhibitor, J558-CD40L stimulation, 24 h supernatant
Experimental: FIG. 2 illustrates the inhibitory effect of PDE4 inhibitors on CD40-induced IL12 production by immature DC. DC (2×10^4 cells/well) were stimulated with J558-CD40L cells in the presence of 10 μM of the indicated PDE4 inhibitors (Ariflo, Rolipram, Diazepino-indole or Pirazolo [4,3-e] diazepine). Results are expressed as the cytokine production in pg/ml of 24 h supernatant of cell cultures. The data shown are from one representative experiment out of three giving similar results. Venous blood from healthy donors is collected by venipuncture in sodium-heparin containing tubes ([…], Terumo Europe, Leuven, Belgium). Peripheral blood mononuclear cells (PBMC) are isolated by density centrifugation on Lymphoprep (Nycomed, Torshov, Norway). Subsequently, PBMC are centrifuged on a Percoll (Pharmacia, Uppsala, Sweden) gradient consisting of three density layers (1.076, 1.059 and 1.045 g/ml). The light density fraction floating on the middle layer, which contained predominantly monocytes, is seeded in 24-well culture plates (Costar, Cambridge, Mass.) at a density of 5×10^5 cells/well. […]

dendritic cells [2] = test: Expression of cell surface molecules (CD1a, CD86, ICAM-1, CD83) on DC matured in presence of PDE4 inhibitors, flow cytometry; type: cell-based, human
Description: (§1) Dendritic cells were matured for 2 days with LPS in the presence or absence of the PDE4 inhibitors Ariflo or Rolipram and analysed for the expression of cell surface molecules by flow cytometry. In the left corner of each figure the mean fluorescence intensity (Mn).
as §1, with “with the maturation factors TNF-α plus IL-1β (referred to as MF)” for “with LPS”, “Ariflo and” for “Ariflo or”
At day 6, the maturation of CD1a^+ DC was induced by a 2-day exposure to either LPS (250 ng/ml; Difco, Detroit, Mich.) or a combination of the cytokines rhIL-1β (10 ng/ml), and TNF-α (25 ng/ml) both obtained from Pharma Biotechnologie, Hannover, Germany. Maturation was induced in the absence or presence of PDE4 inhibitors (10 μM, unless stated otherwise) or PGE2 (10^−6 M; Sigma, St. Louis,Mass.). Where indicated, DC were kept in non-maturing conditions during 2 days.
The mouse mAbs against the following human molecules were used: CD1a (OKT6; Ortho Diagnostic System, Beerse, Belgium), ICAM-1, CD86 (Pharmingen, San Diego, Calif.), CD83 (HB15a, IgG2b; Immunotech, Marseille, France), followed by FITC-conjugated goat anti-mouse mAb (Jackson Immunoresearch Laboratories, West Grove, Pa.).
The maturation process of DC is associated with the appearance of CD83 and upregulation of co-stimulatory molecules like CD86. The study whether the presence of PDE4 inhibitors during DC maturation could affect the cell surface expression of the DC-associated marker CD1a, the co-stimulatory molecules CD86 and ICAM-1, and the DC maturation marker CD83, therefore the study of the expression of these markers after treatment has been performed.

Naive Th cells (ThN) = test: Naive T cell differentiation (Th1/Th2) after co-culture with DC matured in presence of PDE4 inhibitors, intracellular IFN-γ/IL-4 staining; type: cell-based, human; conditions: DC matured with MF plus 10 μM inhibitor
immature DC [3] = test: LPS plus IFN-γ-induced cytokine production by immature DC; type: cell-based, human; conditions: immature DC stimulated with LPS and IFN-γ, 24 h supernatants; for IL-12p70 production / TNF-α production: vs DMSO-treated DC
Experimental: FIG. 1 illustrates the inhibitory effect of PDE 4 inhibitors on LPS plus IFN-γ-induced cytokine production by immature DC. DC (2×10^4 cells/well) were stimulated with LPS and IFN-γ combined with the indicated concentrations of PDE4 inhibitors (Ariflo or Rolipram). Results are expressed as the mean cytokine production in ng/ml of duplicate cultures (24h supernatants). A: IL-12p70; B: TNF-α; C: IL-6. Cytokine production is expressed as ng/ml.
Venous blood from healthy donors is collected by venipuncture in sodium-heparin containing tubes (VT100H; Venoject, Terumo Europe, Leuven, Belgium). Peripheral blood mononuclear cells (PBMC) are isolated by density centrifugation on Lymphoprep (Nycomed, Torshov, Norway). Subsequently, PBMC are centrifuged on a Percoll (Pharmacia, Uppsala, Sweden) gradient consisting of three density layers (1.076, 1.059 and 1.045 g/ml). The light density fraction floating on the middle layer, which contained predominantly monocytes, is seeded in 24-well culture plates (Costar, Cambridge, Mass.) at a density of 5×10^5 cells/well. After 30 min of incubation at 37° C., nonadherent cells are removed; adherent cells are cultured in Iscove's modified Dulbecco's medium (Life Technologies, Paisley, U.K.) containing gentamycin (86 μg/ml; Duchefa, Haarlem, The Netherlands) and 1% FCS (Hyclone, Logan, Utah.) and supplemented with GM-CSF (500 U/ml) and IL-4 (250 U/ml) to obtain DC. At day 3, the media, including the supplements, are refreshed. At day 6, immature CD1a^+CD14^− DC are obtained.
Measurements of IL-12p70 levels in culture supernatants were performed by a specific solid-phase sandwich ELISA OptEI™ human IL-12P70 (Pharmingen San Diego, Calif.). Measurements of IL-6 and TNF-α were performed by ELISA using pairs of specific mAbs and recombinant cytokine standards obtained from BioSource International (Camarillo, Calif.). The limits of detection of these ELISA are as follows: IL-6, 20 pg/ml; IL-12p70, 3 pg/ml; and TNF-α, 20 pg/ml.
In contrast, the production of IL-6 by the immature DC was not affected by any of the inhibitors.

dendritic cells [4] = conditions: cited from earlier work
[5] = DC matured 2 days with TNF-α plus IL-1β (MF)

Row | Compound | IL-12 production (immature DC [1]) | expression of cell surface molecules (phenotype of mature DC) (dendritic cells [2]; DC matured 2 days with LPS) | expression of cell surface molecules (phenotype of mature DC) (dendritic cells [2]; [5]) | IFN-γ (%) positive cells (Naive Th cells (ThN); Experiment 1) [%] | IL-4 positive cells (%) (Naive Th cells (ThN); Experiment 1) | IFN-γ (%) positive cells (Naive Th cells (ThN); Experiment 2) [%] | IL-4 (%) positive cells (Naive Th cells (ThN); Experiment 2) [%] | IFN-g (%) positive cells (Naive Th cells (ThN); Experiment 3) [%] | IL-4 (%) positive cells (Naive Th cells (ThN); Experiment 3) [%] | IL-6 production (immature DC [3]) | IL-12p70 production (immature DC [3]) | TNF-α production (immature DC [3]) | IL-12 production by dendritic cells (dendritic cells [4]; shown in the art) | IL-12 production by dendritic cells (dendritic cells [4])
1 | COc1ccc([C@]2(C#N)CC[C@@H](C(=O)O)CC2)cc1OC1CCCC1 [Ariflo] | able to inhibit IL-12 production | absence of phenotypic effect | absence of phenotypic effect | 4.7 | 15.1 | 29.6 | 2.0 | 24.0 | 6.2 | not affected | reduced ability to produce | reduced ability to produce | – | –
2 | COc1ccc(C2CNC(=O)C2)cc1OC1CCCC1 (stereo not drawn) [Rolipram] | able to inhibit IL-12 production | absence of phenotypic effect | absence of phenotypic effect | 7.2 | 13.5 | 35.4 | 1.1 | 24.5 | 5.7 | not affected | reduced ability to produce | reduced ability to produce | – | –
3 | CCCCC[C@H](O)/C=C/[C@H]1[C@H](O)CC(=O)[C@@H]1C/C=C\CCCC(=O)O [prostaglandin E2] | – | – | – | – | – | – | – | – | – | – | – | – | inhibit IL-12 production | –
4 | CC(C)(C)NCC(O)c1ccc(O)c(CO)c1 (stereo not drawn) [salbutamol] | – | – | – | – | – | – | – | – | – | – | – | – | inhibit IL-12 production | –
5 | cholera toxin | – | – | – | – | – | – | – | – | – | – | – | – | – | inhibit IL-12 production
